The text below walks through data of ChEMBL document CHEMBL1149988, “Antibody catalyzed hydrolysis of a phosphotriester” (Bioorg Med Chem Lett, 1996).

In general, Km refers to the substrate concentration at which the rate is half of its maximum.

The nature of experiment [1]: Hydrolysis kinetic catalysis constant was measured for the hydrolysis catalyzed by antibody 15C5.
The nature of experiment [2]: Catalysis kinetic constant was measured for the hydrolysis catalyzed by antibody 15C5.
Experiment [3] can be described thus: Michaelis-Menten kinetics was measured for the hydrolysis catalyzed by antibody 15C5.

In turn, `CC(=O)NC1COP(=O)(Oc2ccc([N+](=O)[O-])cc2)OC1` (stereo not drawn) returned a Kuncat in experiment [1] of 2.1 min⁻¹. Moreover, the k cat in experiment [2] is 0.0442 s⁻¹. Moreover, in experiment [3], the Km turned out to be 87 µM.
